Data published in article PMC9289467, “A Novel Multifunctional 5,6-Dimethoxy-Indanone-Chalcone-Carbamate Hybrids Alleviates Cognitive Decline in Alzheimer’s Disease by Dual Inhibition of Acetylcholinesterase and Inflammation” (Frontiers in Aging Neuroscience, 2022).

Key:
[1] = target: T1, pre-formed Aβ40-AChE fibrils complex (Homo sapiens, UniProt P22303); test: Disaggregation of pre-formed Aβ40-AChE fibrils (ThT); assay type: biochemical; conditions: Aβ40 pre-aggregated with AChE for 2 days before co-incubation with AP5
T1 construct: purchased Roche (AChE); Invitrogen (Aβ40) R005282 (AChE); 03-136 (Aβ40)
Procedure: The effects of AP5 on Aβ fibril formation and pre-formed Aβ fibrils disaggregation were determined using a previously described method of Thioflavin T (ThT, T3516, Sigma Aldrich, St. Louis, MO, United States) fluorometry ([Jan et al., 2010]).
Supplementary materials and methods … ...1 […]
Supplementary Figure 1 … .....7
Supplementary Figure 2 … .....7
Supplementary materials and methods
Prepations ofspecimen for pharmacokinetics analysis
24 h afterdosing. Brains were collected at0, 0.25, 0.5,2, 4,8 and 24 h after administration.Plasma extractions were performed by adding 90 μL methanol and 2 μL internalstandard letrozole (500 ng/mL) to a30 µL plasma sample. […]
Then 90 μL methanol and 2 μL letrozolewere added to 30 µl brainhomogenates. The samples were vortexed for 3 min and centrifuged 15 min at25,000 g.The plasma and brainhomogenate were analyzed by UPLC-TSQ/MS (Thermo Fisher Scientific, Waltham, MA, USA). […]
To study the kinetics of Aβ-AChE fibril complex formation, 10 μM Aβ was mixed with AChE (R005282, Roche, Basel, Switzerland) and different concentrations AP5 and incubated with 10 μM ThT and 50 mM glycine-NaOH (pH 8.5) at 37°C, the ThT fluorescence was continually measured for 24 h at 30 min intervals. […] Fluorescence emission at485 nm was measured on a Spectra MAX GeminiXS fluorometerat an excitation wavelength of 450 nm. […]

Aβ40 and Aβ42 = assay type: in vivo, APP/PS1 mice; conditions: cortex and hippocampus; AP5 40 mg/kg once daily 5 months
Procedure: (§1) APP/PS1 mice of ages 6 months were randomly divided into vehicle (APP/PS1, n = 10) and treatment groups (AP5, n = 10), which were intragastrically administered with AP5 (40 mg/kg) once daily for consecutive 5 months. AP5 was dissolved in distilled water containing 1% sodium carboxymethyl cellulose.
(§2) For detecting the pathological soluble or insoluble Aβ in mice, sequential extractions were performed as follows: the half of right hippocampus and cortex from three groups were homogenized in TBS solution containing 5 mM EDTA, phosphatase inhibitor (P1050, Beyotime, Shanghai, China), and protease inhibitor cocktail (P1010, Beyotime) followed by centrifugation at 25,000g at 4°C for 1 h. The supernatant was collected as a TBS fraction and the resulting pellet was solubilized in 70% formic acid (FA), sonicated until the lysis buffer was clear, followed by centrifugation at 25,000g at 4°C for 1 h. The supernatant was collected as the FA fraction and neutralized (1:20) in a neutralization buffer (1 M tris base, 0.5 M Na2HPO4, 0.05% NaN3). Human Aβ40 and Aβ42 were determined by ELISA kits (E-EL-H0452c and E-EL-H0453c, Elabscience, Wuhan, China) in accordance with the manufacturer’s instructions. In addition, the levels of IL-1β (88-7013-88, Invitrogen), IL-6 (EK206HS-96, Multi sciences, HangZhou, China), and TNF-α (88-7324-88, Invitrogen) in TBS fraction were also determined by ELISA.

TNF-α, IL-6, IL-1β = test: ELISA of proinflammatory cytokines, APP/PS1 mice; assay type: in vivo; conditions: TBS fraction, AP5 40 mg/kg once daily 5 months
Procedure: as §1, §2

T1 sequence (P22303 32-614, one chain of several): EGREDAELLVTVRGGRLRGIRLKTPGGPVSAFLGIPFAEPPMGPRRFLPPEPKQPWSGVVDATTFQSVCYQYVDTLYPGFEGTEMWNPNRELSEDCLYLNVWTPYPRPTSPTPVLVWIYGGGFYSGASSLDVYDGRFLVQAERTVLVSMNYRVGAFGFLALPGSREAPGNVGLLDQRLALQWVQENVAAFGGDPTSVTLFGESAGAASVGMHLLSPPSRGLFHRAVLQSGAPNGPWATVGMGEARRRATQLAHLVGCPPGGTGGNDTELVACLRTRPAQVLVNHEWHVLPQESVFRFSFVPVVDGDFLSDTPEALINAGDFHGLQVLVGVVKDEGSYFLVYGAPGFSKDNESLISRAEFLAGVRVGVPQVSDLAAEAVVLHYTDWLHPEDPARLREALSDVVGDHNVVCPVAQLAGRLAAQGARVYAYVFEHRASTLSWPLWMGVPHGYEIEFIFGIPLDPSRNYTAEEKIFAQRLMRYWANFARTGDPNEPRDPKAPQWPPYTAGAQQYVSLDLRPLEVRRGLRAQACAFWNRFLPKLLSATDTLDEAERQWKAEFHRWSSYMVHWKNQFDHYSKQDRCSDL

Structure (SMILES): CCN(C)C(=O)Oc1cccc(/C=C2\Cc3cc(OC)c(OC)cc3C2=O)c1 [AP5, (E)-3-((5,6-dimethoxy-1-oxo-1,3-dihydro-2H-inden-2-ylidene)-methyl)phenylethyl(methyl)carbamate]
- ThT fluorescence intensity, disaggregation of pre-formed Aβ40 fibrils [1]: marked decline of ThT fluorescence intensity
- Aβ40 and Aβ42 in TBS-fraction (Aβ40 and Aβ42): no marked differences
- concentration of insoluble Aβ40 in FA-fractions (Aβ40 and Aβ42): markedly decreased
- concentration of insoluble Aβ42 in FA-fractions (Aβ40 and Aβ42): markedly decreased
- IL-1β level (TNF-α, IL-6, IL-1β): markedly reduced
- IL-6 level (TNF-α, IL-6, IL-1β): markedly reduced
- TNF-α level (TNF-α, IL-6, IL-1β): markedly reduced
